As a reminder, the Ki is the dissociation constant of the complex between target and ligand, obtained from inhibition or displacement.

SMILES strings stand for the structures.

In this test the target is T1, 5-HT2C receptor (Homo sapiens, UniProt P28335).
T1 sequence (P28335 33-458): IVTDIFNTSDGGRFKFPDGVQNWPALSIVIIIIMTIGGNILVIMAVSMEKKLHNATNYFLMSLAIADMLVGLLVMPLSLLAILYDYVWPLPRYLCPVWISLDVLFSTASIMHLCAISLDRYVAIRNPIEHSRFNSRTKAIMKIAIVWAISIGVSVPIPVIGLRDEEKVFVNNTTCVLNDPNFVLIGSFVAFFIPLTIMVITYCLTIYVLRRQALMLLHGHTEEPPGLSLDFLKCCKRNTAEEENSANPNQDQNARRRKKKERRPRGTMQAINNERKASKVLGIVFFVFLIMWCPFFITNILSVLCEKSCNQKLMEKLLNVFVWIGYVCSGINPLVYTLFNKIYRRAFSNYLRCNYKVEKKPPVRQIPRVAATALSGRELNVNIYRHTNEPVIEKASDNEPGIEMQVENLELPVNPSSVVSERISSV
Kind of test: […]DOI radioligand competition binding on HEK-h5HT2C cell homogenate.

The compound `CC(C)N(CCc1c[nH]c2ccccc12)C(C)C` [DiPT] registered a Ki of 290 ± 110 nM.

These data come from article PMC4282596 (Psychopharmacology, 2014).
